Assay results from article PMC3116808 (Journal of natural products, 2011).
In brackets after ≈: the same amount, converted by molar mass.

Experiments:
Format in all cases: cell-based
[1] = system: NCI-H460; assay: Human cancer cell line minipanel: lung NCI-H460
[2] = system: P388 lymphocytic leukemia cell line; assay: Murine P388 lymphocytic leukemia cell line growth inhibition
[3] = system: KM20L2; assay: Human cancer cell line minipanel: colon KM20L2; settings: KM-20L2
[4] = system: SF-268; assay: Human cancer cell line minipanel: CNS SF-268
[5] = system: MCF-7; assay: Human cancer cell line minipanel: breast MCF-7; settings: MCF7
[6] = system: DU-145; assay: Human cancer cell line minipanel: prostate DU-145
[7] = system: BXPC-3; assay: Human cancer cell line minipanel: pancreas BXPC-3
[8] = system: panel of murine and human cancer cell lines; assay: Cancer cell growth inhibition, summary over the panel

Row | SMILES | GI50 [1] [ng/mL] | ED50 [2] [ng/mL] | ED50 (nanomolar value in parentheses) [2] [nM] | GI50 [3] [ng/mL] | GI50 [4] [ng/mL] | GI50 [5] [ng/mL] | GI50 [6] [ng/mL] | GI50 [7] [ng/mL] | GI50 [8] [ng/mL]
1 | CC[C@H](C)[C@@H]([C@@H](CC(=O)N1CCC[C@H]1[C@H](OC)[C@@H](C)C(=O)NCCc1ccc(OP(=O)([O-])[O-])cc1)OC)N(C)C(=O)[C@@H](NC(=O)[C@H](C(C)C)N(C)C)C(C)C.[Na+].[Na+] [3b, Sodium Auristatin TP] | 0.88 | < 1 | < 1.2 | 0.61 | 1.25 | 0.68 | 0.54 | 46 | 
2 | CC[C@H](C)[C@@H]([C@@H](CC(=O)N1CCC[C@H]1[C@H](OC)[C@@H](C)C(=O)NCCc1ccc(O)cc1)OC)N(C)C(=O)[C@@H](NC(=O)[C@H](C(C)C)N(C)C)C(C)C [compound 9, Dov-Val-Dil-Dap-4-hydroxyphenethylamide] |  | 3.6 (≈ 5.01 nM) | 5.0 |  |  |  |  |  | 
3 | CC[C@H](C)[C@@H]([C@@H](CC(=O)N1CCC[C@H]1[C@H](OC)[C@@H](C)C(=O)Nc1ccc2ccccc2n1)OC)N(C)C(=O)[C@@H](NC(=O)[C@H](C(C)C)N(C)C)C(C)C [compound 4, Dov-Val-Dil-Dap-2-aminoquinoline] | 16 (≈ 22.1 nM) | 31 (≈ 42.8 nM) | 42.8 | 7.7 (≈ 10.6 nM) | 29 (≈ 40 nM) | 4.6 (≈ 6.34 nM) | 23 (≈ 31.7 nM) | 29 (≈ 40 nM) | 
4 | CC[C@H](C)[C@@H]([C@@H](CC(=O)N1CCC[C@H]1[C@H](OC)[C@@H](C)C(=O)NCCc1ccc(OP(=O)([O-])[O-])cc1)OC)N(C)C(=O)[C@@H](NC(=O)[C@H](C(C)C)N(C)C)C(C)C.[K+].[K+] [3c, Potassium Auristatin TP] |  | 7.6 | 8.7 |  |  |  |  |  | 
5 | CC[C@H](C)[C@@H]([C@@H](CC(=O)N1CCC[C@H]1[C@H](OC)[C@@H](C)C(=O)Nc1ccc2ncccc2c1)OC)N(C)C(=O)[C@@H](NC(=O)[C@H](C(C)C)N(C)C)C(C)C [compound 5, Dov-Val-Dil-Dap-6-aminoquinoline] | 0.36 (≈ 0.497 nM) | 2.6 (≈ 3.59 nM) | 3.59 | 0.25 (≈ 0.345 nM) | 0.16 (≈ 0.221 nM) | 0.14 (≈ 0.193 nM) | 0.3 (≈ 0.414 nM) | 0.31 (≈ 0.428 nM) | 0.1 (≈ 0.138 nM)
